Experimental data: US20230346952A1, “CANNABINOID GLYCOSIDE PRODRUGS AND METHODS OF SYNTHESIS” (priority 2015, published 2023)

Legend:
Experiment in all cases: biochemical
[1] = target: safety screen panel of human pharmacological targets (Homo sapiens, UniProt P28223); conditions: read-out: percent inhibition: 5-HT2A (h) (agonist radioligand)
[2] = target: safety screen panel of human pharmacological targets (Homo sapiens, UniProt P31645); conditions: read-out: percent inhibition: 5-HT transporter (h) (antagonist radioligand)
safety screen panel of human pharmacological targets (Homo sapiens, UniProt P31645), sequence (P31645 whole entry): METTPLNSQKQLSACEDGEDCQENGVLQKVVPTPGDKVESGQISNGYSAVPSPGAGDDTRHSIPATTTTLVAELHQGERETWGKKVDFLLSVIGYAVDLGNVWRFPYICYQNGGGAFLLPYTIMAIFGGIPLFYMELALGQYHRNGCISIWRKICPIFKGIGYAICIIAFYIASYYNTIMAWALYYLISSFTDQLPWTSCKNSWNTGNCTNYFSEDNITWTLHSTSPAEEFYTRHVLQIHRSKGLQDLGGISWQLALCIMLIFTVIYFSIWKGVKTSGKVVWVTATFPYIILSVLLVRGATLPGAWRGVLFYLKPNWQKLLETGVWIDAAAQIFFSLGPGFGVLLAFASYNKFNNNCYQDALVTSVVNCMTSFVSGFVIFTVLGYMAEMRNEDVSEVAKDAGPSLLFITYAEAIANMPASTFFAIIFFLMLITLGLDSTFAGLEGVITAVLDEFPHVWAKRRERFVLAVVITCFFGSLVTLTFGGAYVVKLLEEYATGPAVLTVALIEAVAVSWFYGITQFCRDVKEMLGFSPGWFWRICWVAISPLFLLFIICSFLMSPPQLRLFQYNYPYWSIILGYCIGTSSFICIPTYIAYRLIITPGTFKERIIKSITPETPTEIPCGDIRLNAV

[3] = target: T1, safety screen panel of human pharmacological targets (Homo sapiens, UniProt P35354); conditions: read-out: percent inhibition: COX2(h})
T1 sequence (P35354 18-604): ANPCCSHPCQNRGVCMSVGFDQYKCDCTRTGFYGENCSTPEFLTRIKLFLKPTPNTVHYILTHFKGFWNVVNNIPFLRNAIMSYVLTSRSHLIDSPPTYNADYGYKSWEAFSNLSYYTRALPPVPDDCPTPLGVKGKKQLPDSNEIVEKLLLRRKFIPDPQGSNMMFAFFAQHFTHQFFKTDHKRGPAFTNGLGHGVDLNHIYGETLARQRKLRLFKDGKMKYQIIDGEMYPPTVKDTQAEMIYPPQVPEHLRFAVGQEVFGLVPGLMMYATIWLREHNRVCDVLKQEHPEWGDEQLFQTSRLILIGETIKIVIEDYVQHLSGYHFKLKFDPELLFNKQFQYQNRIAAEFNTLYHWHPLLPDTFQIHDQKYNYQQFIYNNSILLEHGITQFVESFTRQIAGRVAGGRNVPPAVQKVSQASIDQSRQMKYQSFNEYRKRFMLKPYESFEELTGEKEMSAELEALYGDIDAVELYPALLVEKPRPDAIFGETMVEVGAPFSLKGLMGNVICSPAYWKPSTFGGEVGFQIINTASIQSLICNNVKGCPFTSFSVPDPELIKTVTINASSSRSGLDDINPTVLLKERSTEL

[4] = target: safety screen panel of human pharmacological targets (Homo sapiens, UniProt P41595); conditions: read-out: percent inhibition: 5-HT2B (h) (agonist radioligand)
safety screen panel of human pharmacological targets (Homo sapiens, UniProt P41595), sequence (P41595 whole entry): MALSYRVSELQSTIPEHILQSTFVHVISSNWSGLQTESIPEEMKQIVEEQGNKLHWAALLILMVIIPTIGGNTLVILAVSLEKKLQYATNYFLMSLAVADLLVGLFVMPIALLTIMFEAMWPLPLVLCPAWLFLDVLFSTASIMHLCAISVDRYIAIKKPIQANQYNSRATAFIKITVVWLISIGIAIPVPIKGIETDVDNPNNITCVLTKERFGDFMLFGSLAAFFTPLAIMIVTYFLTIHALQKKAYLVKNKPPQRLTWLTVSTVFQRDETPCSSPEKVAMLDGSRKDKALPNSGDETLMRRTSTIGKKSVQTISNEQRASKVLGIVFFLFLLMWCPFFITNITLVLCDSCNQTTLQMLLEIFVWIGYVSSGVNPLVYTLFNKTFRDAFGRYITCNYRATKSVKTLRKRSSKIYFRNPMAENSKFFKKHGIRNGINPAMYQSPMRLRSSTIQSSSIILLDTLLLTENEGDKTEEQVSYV

[5] = target: safety screen panel of human pharmacological targets (Homo sapiens, UniProt P23975); conditions: read-out: percent inhibition: norepinephrine transporter (h) (antagonist radioligand)
safety screen panel of human pharmacological targets (Homo sapiens, UniProt P23975), sequence (P23975 whole entry): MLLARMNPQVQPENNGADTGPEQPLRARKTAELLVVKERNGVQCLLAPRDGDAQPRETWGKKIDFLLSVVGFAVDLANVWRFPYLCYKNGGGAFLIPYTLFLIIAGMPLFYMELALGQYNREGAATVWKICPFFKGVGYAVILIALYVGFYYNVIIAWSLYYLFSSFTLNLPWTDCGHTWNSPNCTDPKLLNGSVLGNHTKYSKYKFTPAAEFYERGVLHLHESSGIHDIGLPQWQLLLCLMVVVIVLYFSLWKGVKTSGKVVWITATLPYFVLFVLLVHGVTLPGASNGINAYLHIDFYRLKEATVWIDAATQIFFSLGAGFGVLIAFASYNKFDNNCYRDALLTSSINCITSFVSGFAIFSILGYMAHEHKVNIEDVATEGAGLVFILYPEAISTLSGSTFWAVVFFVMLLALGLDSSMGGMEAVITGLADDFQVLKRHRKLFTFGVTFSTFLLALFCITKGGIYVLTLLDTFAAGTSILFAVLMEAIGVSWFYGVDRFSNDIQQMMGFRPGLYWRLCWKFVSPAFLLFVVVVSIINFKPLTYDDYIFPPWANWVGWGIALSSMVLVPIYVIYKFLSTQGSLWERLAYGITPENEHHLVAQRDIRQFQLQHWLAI

[6] = target: safety screen panel of human pharmacological targets (Homo sapiens, UniProt P29274); conditions: read-out: percent inhibition: A2A (h) (agonist radioligand)
safety screen panel of human pharmacological targets (Homo sapiens, UniProt P29274), sequence (P29274 whole entry): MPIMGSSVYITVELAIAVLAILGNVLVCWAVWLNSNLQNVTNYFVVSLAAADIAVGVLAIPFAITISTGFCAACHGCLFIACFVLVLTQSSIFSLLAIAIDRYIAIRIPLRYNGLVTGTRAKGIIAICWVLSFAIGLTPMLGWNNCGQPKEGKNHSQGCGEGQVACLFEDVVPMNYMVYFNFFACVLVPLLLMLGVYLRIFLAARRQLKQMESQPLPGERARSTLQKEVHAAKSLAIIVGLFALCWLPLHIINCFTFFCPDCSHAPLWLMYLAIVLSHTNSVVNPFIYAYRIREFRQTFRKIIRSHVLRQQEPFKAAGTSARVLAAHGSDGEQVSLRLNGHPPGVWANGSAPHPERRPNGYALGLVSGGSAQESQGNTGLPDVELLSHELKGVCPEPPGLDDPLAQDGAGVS

[7] = target: safety screen panel of human pharmacological targets (Homo sapiens, UniProt P37288); conditions: read-out: percent inhibition: V1a (h) (agonist radioligand)
safety screen panel of human pharmacological targets (Homo sapiens, UniProt P37288), sequence (P37288 whole entry): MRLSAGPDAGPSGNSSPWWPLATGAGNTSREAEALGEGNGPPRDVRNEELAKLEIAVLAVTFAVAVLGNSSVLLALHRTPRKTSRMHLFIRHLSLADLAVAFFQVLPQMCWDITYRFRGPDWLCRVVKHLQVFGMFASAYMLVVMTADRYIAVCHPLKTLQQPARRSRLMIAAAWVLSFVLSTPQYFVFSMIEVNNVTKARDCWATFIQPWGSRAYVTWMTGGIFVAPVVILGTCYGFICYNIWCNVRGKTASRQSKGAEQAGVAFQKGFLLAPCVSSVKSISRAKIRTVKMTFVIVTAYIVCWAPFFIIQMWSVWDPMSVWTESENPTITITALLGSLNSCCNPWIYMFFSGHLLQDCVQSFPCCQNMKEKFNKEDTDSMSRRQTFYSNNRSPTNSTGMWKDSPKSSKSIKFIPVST

[8] = target: T2, safety screen panel of human pharmacological targets (Homo sapiens, UniProt P32238); conditions: read-out: percent inhibition: CCK1 (CCKA) (h) (agonist radioligand)
T2 sequence (P32238 1-428): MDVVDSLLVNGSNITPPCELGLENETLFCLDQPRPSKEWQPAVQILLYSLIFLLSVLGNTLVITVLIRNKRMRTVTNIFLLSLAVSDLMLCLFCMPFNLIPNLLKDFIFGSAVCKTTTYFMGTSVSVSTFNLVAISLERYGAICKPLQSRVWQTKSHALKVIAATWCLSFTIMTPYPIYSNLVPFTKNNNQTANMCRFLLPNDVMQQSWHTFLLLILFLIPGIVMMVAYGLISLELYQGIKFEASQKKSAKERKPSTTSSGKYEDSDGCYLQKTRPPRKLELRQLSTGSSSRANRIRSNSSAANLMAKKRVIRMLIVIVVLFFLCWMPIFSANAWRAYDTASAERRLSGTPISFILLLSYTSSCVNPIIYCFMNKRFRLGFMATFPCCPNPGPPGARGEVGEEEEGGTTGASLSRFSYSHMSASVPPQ

[9] = target: T3, safety screen panel of human pharmacological targets (Homo sapiens, UniProt P25101); conditions: read-out: percent inhibition: ETA (h) (agonist radioligand)
T3 sequence (P25101 21-427): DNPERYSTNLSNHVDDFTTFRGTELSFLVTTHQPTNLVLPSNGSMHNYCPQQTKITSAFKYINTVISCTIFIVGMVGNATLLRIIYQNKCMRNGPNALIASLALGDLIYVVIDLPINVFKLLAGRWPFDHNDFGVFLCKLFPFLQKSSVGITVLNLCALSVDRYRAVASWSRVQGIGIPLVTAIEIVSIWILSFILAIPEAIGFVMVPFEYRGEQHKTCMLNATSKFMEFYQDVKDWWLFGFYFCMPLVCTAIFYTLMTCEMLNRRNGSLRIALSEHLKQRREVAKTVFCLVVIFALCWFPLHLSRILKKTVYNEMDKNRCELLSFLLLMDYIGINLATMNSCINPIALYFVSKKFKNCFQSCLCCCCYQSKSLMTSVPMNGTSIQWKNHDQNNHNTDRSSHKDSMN

[10] = target: T4, safety screen panel of human pharmacological targets (Homo sapiens, UniProt P11229); conditions: read-out: percent inhibition: M1 (h) (antagonist radioligand)
T4 sequence (P11229 1-460): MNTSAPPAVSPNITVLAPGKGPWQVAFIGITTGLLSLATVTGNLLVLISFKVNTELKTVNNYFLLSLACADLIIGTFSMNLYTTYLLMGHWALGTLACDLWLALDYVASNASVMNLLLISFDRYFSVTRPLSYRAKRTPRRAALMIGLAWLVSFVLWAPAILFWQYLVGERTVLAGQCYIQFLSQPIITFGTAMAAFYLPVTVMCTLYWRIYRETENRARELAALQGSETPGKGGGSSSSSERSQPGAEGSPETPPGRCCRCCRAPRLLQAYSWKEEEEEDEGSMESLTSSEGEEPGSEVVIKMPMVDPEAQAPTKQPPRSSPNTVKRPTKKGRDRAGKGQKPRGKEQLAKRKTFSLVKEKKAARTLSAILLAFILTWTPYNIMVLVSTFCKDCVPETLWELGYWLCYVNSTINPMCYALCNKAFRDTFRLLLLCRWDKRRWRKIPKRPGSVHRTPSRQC

[11] = target: safety screen panel of human pharmacological targets (Homo sapiens, UniProt Q14432); conditions: read-out: percent inhibition: PDE3A (h)
safety screen panel of human pharmacological targets (Homo sapiens, UniProt Q14432), sequence (Q14432 whole entry): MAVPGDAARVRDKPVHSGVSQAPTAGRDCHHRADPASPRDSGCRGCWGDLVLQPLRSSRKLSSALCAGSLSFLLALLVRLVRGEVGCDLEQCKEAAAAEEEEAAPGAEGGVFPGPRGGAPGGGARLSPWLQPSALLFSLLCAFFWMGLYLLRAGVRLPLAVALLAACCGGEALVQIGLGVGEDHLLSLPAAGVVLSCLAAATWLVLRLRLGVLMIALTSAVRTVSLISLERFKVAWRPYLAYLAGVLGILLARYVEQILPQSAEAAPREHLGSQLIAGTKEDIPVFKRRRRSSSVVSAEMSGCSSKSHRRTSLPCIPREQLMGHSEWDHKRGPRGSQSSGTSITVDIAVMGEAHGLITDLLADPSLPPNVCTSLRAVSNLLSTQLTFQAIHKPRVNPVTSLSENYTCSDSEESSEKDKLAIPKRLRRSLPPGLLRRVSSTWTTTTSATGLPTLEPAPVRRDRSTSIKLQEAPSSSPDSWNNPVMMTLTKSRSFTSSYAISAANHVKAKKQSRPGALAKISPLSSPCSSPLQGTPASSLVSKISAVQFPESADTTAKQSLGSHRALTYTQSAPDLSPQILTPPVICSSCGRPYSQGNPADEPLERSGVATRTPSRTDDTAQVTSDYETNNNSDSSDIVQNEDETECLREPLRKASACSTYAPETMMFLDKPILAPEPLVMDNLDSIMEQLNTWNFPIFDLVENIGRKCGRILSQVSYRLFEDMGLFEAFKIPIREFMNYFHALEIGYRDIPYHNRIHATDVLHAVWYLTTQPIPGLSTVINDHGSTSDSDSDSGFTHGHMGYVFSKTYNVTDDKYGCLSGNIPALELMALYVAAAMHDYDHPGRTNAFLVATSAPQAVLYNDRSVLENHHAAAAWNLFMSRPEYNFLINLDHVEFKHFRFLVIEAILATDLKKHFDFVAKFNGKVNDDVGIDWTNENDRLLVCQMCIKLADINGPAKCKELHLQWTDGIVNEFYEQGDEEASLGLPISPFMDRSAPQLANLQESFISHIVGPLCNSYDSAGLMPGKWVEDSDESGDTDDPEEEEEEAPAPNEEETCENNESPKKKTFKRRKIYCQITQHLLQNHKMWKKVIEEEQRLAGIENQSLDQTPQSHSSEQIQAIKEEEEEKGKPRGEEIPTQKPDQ

safety screen panel of human pharmacological targets (Homo sapiens, UniProt P28223), sequence (P28223 whole entry): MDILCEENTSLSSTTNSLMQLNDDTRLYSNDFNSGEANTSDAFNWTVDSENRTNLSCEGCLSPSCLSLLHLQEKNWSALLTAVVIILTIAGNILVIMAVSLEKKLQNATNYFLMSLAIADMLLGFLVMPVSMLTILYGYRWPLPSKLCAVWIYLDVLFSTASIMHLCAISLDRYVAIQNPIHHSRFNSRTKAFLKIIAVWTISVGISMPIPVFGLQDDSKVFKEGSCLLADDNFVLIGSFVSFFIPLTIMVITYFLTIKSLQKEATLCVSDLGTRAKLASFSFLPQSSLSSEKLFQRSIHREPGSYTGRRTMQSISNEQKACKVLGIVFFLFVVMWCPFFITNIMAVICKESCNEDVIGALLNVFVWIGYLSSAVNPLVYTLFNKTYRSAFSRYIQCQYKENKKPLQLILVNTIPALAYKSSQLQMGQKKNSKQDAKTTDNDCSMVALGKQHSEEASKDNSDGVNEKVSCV

SMILES | inhibition at 10 µM [1] | inhibition at 10 µM [2] | inhibition at 10 µM [3] | inhibition at 10 µM [4] | inhibition at 10 µM [5] | inhibition at 10 µM [6] | inhibition at 10 µM [7] | inhibition at 10 µM [8] | inhibition at 10 µM [9] | inhibition at 10 µM [10] | inhibition at 10 µM [11]
CCCCCc1cc(O[C@@H]2O[C@H](CO[C@@H]3O[C@H](CO)[C@@H](O)[C@H](O)[C@H]3O)[C@@H](O[C@@H]3O[C@H](CO)[C@@H](O)[C@H](O)[C@H]3O)[C@H](O)[C@H]2O)c2c(c1)OC(C)(C)[C@@H]1CCC(C)=C[C@@H]21 [VB311] | 4% | 3% | 8% | -7% | 20% | -4% | 7% | 17% | 9% | -8% | -6%
CCCCCc1cc(O)c2c(c1)OC(C)(C)[C@@H]1CCC(C)=C[C@@H]21 [VB301, Δ9-Terahydrocannabinol, reference compound] | 92% | 91% | -6% | 90% | 90% | 63% | -2% | 87% | 14% | 20% | -4%
CCCCCc1cc(O[C@@H]2O[C@H](CO)[C@@H](O)[C@H](O)[C@H]2O)c2c(c1)OC(C)(C)[C@@H]1CCC(C)=C[C@@H]21 [VB302, Δ9THC-1-O-glucopyranoside] | 11% | -1% | -20% | -5% | 16% | -11% | 8% | -31% | -21% | -3% | -44%
